In brackets after ≈: the same amount, converted by molar mass. Read-outs that look alike come from different tables or passages of the source.
Experiments:
L. casei = assay: agar dilution MIC assay of anaerobic bacteria; assay type: cell-based, Lactobacillus casei; conditions: Lacticaseibacillus casei, Strain no. 1722 (ATCC strain), Table 3
Description: (§1) Each compound was assayed against a panel of anaerobic bacteria in culture, consisting of Gram-positive organisms, such as Lactobacilli, Bifidobacteria, Clostridium spp., and Gram-negative bacteria, such as […] fragilis spp., according to guidelines of the Clinical and Laboratory Standards Institute (CLSI document M11-A7, CLSI, Wayne, Pa., 2007). […] One tenth mL of diluted bacteria containing 500-1000 colony-forming units (CFU) was plated and spread, and the plates incubated at 37° C. for 24-48 hours. MIC (minimum inhibitory concentration) is equivalent to the lowest concentration in μg/ml at which growth, i.e., colony formation, is not observed. […] Bacteria were assayed using a reference agar dilution method. Drug dilutions and drug-supplemented agar plates were prepared manually. The test organisms were maintained frozen at −80° C. The isolates were sub-cultured on Supplemented Brucella Agar (SBA) plates in a Bactron II anaerobic chamber and incubated for 48 hours at 35-36° C. in the Bactron II anaerobe chamber. Following inoculation, the drug-supplemented plates were incubated at 35° C. for 48 hours in the anaerobic environment (5% hydrogen, 5% carbon dioxide, 90% nitrogen) of the Bactron II. The MIC in μg/ml was read per Clinical and Laboratory Standards Institute guidelines.

Ba. fragilis = assay: agar dilution MIC assay of anaerobic bacteria; assay type: cell-based; conditions: Bacteroides fragilis, B. fragilis
Description: as §1

L. acidophilus = assay: agar dilution MIC assay of anaerobic bacteria; assay type: cell-based; conditions: Lactobacillus acidophilus, Strain no. 0681, Table 3
Description: as §1

Bi. brevi = assay: agar dilution MIC assay of anaerobic bacteria; assay type: cell-based, Bifidobacterium brevi; conditions: Bifidobacterium breve; Bi. Breve, Strain no. 3967 (ATCC strain), Table 3
Description: as §1

Bi. longum = assay: agar dilution MIC assay of anaerobic bacteria; assay type: cell-based, Bifidobacterium longum; conditions: Bifidobacterium longum; Bi. Longum, Strain no. 3968 (ATCC strain), Table 3; read-out: MIC
Description: as §1

E. lentum = assay: agar dilution MIC assay of anaerobic bacteria; assay type: cell-based, Eubacterium lentum; conditions: Eggerthella lenta; Eu. Lentum, Strain no. 1274 (ATCC strain), Table 3; read-out: MIC
Description: as §1

C. difficile = assay: agar dilution MIC assay of anaerobic bacteria; assay type: cell-based, Clostridium difficile; conditions: for MIC: Clostridioides difficile, read-out: MIC
Description: as §1

C. diff. (ATCC43255) = assay: clindamycin-induced C. diff. infection model in Syrian golden hamsters; assay type: in vivo; conditions: for % Survivors at 120 hr / Survivors at 24 hr / Survivors at 48 hr / Survivors at 66 hr / Survivors at 72 hr / Survivors at 96 hr: n = 6 hamsters
Text: Compound 359E was given orally as a suspension in 1% carboxymethylcellulose to Syrian Golden hamsters, pretreated subcutaneously with clindamycin and infected orally with C. diff. (ATCC43255) as described in Table 5.

Q: Which results are given for O=c1[nH]c(NCc2ccc(Cl)c(Cl)c2)nc2ncn(CCCCCN3CCOCC3)c12 [Compound 359E, 7-[5-(N-morpholinyl)pentyl]-2-(3,4-dichlorobenzylamino)-6-oxopurine]?
A: MIC (L. casei): 16 µg/mL (≈ 34.4 µM); MIC (Ba. fragilis; Micromyx Number 0123 (ATCC strain), Table 2): > 32 µg/mL; MIC (Ba. fragilis; Strain no. 0123 (ATCC strain), Gram-negative (control), Table 3): > 32 µg/mL; MIC (L. acidophilus): 2 µg/mL (≈ 4.3 µM); MIC (Bi. brevi): > 32 µg/mL; MIC (Bi. longum): > 32 µg/mL; MIC (E. lentum): > 32 µg/mL; MIC (C. difficile; C. diff. Strain no. 18285, Table 4): 8 µg/mL (≈ 17.2 µM); MIC (C. difficile; C. diff. Strain no. 19265, Table 4): 8 µg/mL (≈ 17.2 µM); MIC (C. difficile; C. diff. Strain no. 19273, Table 4): 8 µg/mL (≈ 17.2 µM); MIC (C. difficile; C. diff. Strain no. 19281, Table 4): 8 µg/mL (≈ 17.2 µM); MIC (C. difficile; C. diff. Strain no. 19291, Table 4): 4 µg/mL (≈ 8.6 µM); MIC (C. difficile; C. diff. Strain no. 19369, Table 4): 8 µg/mL (≈ 17.2 µM); MIC (C. difficile; C. diff. Strain no. 19382, Table 4): 2 µg/mL (≈ 4.3 µM); MIC (C. difficile; C. diff. Strain no. 19540, Table 4): 4 µg/mL (≈ 8.6 µM); MIC (C. difficile; C. diff. Strain no. 19580, Table 4): 2 µg/mL (≈ 4.3 µM); MIC (C. difficile; C. diff. Strain no. 19680, Table 4): 8 µg/mL (≈ 17.2 µM); MIC (C. difficile; C. diff. Strain no. 19681, Table 4): 8 µg/mL (≈ 17.2 µM); MIC (C. difficile; C. diff. Strain no. 19683, Table 4): 8 µg/mL (≈ 17.2 µM); MIC (C. difficile; C. diff. Strain no. 19687, Table 4): 8 µg/mL (≈ 17.2 µM); MIC (C. difficile; C. diff. Strain no. 20066, Table 4): 8 µg/mL (≈ 17.2 µM); MIC (C. difficile; C. diff. Strain no. 20152, Table 4): 8 µg/mL (≈ 17.2 µM); MIC (C. difficile; C. diff. Strain no. 20307, Table 4): 8 µg/mL (≈ 17.2 µM); MIC (C. difficile; C. diff. Strain no. 20494, Table 4): 8 µg/mL (≈ 17.2 µM); MIC (C. difficile; C. diff. Strain no. 20680, Table 4): 8 µg/mL (≈ 17.2 µM); MIC (C. difficile; C. diff. Strain no. 20934, Table 4): 2 µg/mL (≈ 4.3 µM); MIC (C. difficile; C. diff. Strain no. 21099, Table 4): 8 µg/mL (≈ 17.2 µM); MIC (C. difficile; C. diff., Micromyx Number 3579, Table 2): 2 µg/mL (≈ 4.3 µM); MIC (C. difficile; C. diff., Micromyx Number 3580, Table 2): 2 µg/mL (≈ 4.3 µM); MIC (C. difficile; C. diff., Micromyx Number 3581, Table 2): 2 µg/mL (≈ 4.3 µM); MIC (C. difficile; C. diff., Micromyx Number 3582 (ATCC strain), Table 2): 2 µg/mL (≈ 4.3 µM); MIC (C. difficile; C. diff., Strain no. 3580, Table 3): 4 µg/mL (≈ 8.6 µM); MIC (C. difficile; C. diff., Strain no. 3581, Table 3): 2 µg/mL (≈ 4.3 µM); MIC (C. difficile; C. diff., Strain no. 3582, Table 3): 8 µg/mL (≈ 17.2 µM); MIC (C. difficile; C. diff., Strain no. 3584, Table 3): 2 µg/mL (≈ 4.3 µM); MIC (C. difficile; C. diff., Strain no. 3585, Table 3): 4 µg/mL (≈ 8.6 µM); MIC (C. difficile; C. diff., Strain no. 3586, Table 3): 2 µg/mL (≈ 4.3 µM); MIC (C. difficile; C. diff., Strain no. 3587, Table 3): 4 µg/mL (≈ 8.6 µM); MIC (C. difficile; C. diff., Strain no. 3588, Table 3): 0.5 µg/mL (≈ 1.07 µM); MIC (C. difficile; C. diff., Strain no. 3589, Table 3): 4 µg/mL (≈ 8.6 µM); MIC (C. difficile; C. diff., Strain no. 4381 (ATCC strain), Table 3): 2 µg/mL (≈ 4.3 µM); potency and selectivity against C. diff. versus other Gram-positive anaerobes (in words) (C. difficile; summary of MIC panels, Tables 1 and 3): best profile; % Survivors at 120 hr (C. diff. (ATCC43255); 25 mg/kg PO bid for 3 days): 100%; Survivors at 24 hr (C. diff. (ATCC43255); 25 mg/kg PO bid for 3 days): 6; Survivors at 48 hr (C. diff. (ATCC43255); 25 mg/kg PO bid for 3 days): 6; Survivors at 66 hr (C. diff. (ATCC43255); 25 mg/kg PO bid for 3 days): 6; Survivors at 72 hr (C. diff. (ATCC43255); 25 mg/kg PO bid for 3 days): 6; Survivors at 96 hr (C. diff. (ATCC43255); 25 mg/kg PO bid for 3 days): 6; % Survivors at 120 hr (C. diff. (ATCC43255); 50 mg/kg PO bid for 3 days): 100%; Survivors at 24 hr (C. diff. (ATCC43255); 50 mg/kg PO bid for 3 days): 6; Survivors at 48 hr (C. diff. (ATCC43255); 50 mg/kg PO bid for 3 days): 6; Survivors at 66 hr (C. diff. (ATCC43255); 50 mg/kg PO bid for 3 days): 6; Survivors at 72 hr (C. diff. (ATCC43255); 50 mg/kg PO bid for 3 days): 6; Survivors at 96 hr (C. diff. (ATCC43255); 50 mg/kg PO bid for 3 days): 6; protection from lethal infection with C. diff. (in words) (C. diff. (ATCC43255); oral suspension in 1% carboxymethylcellulose, twice daily): protected hamsters from lethal infection

— US8796292B2, “Selective antibacterials for clostridium difficile infections” (GLSynthesis Inc., priority 2009, dated 2014)
